Source: paper PMC10743929, “Amphiphilic Sialic Acid Derivatives as Potential Dual-Specific Inhibitors of Influenza Hemagglutinin and Neuraminidase” (International Journal of Molecular Sciences, 2023)
Read-outs that look alike come from different tables or passages of the source.

Columns and labels:
IAV (A/H3N2) = test: CPE reduction assay, influenza A/H3N2 in MDCK cells; assay type: cell-based, influenza A virus A/H3N2 (A/Victoria/361/11 or A/HK/7/87); details: Influenza A virus, H3N2, 72 h
Procedure: (§1) The process of CPE reduction assay for the influenza virus was described previously. The virus strains were A/Virginia/ATCC3/2009, A/PR/8 (A/H1N1), A/Victoria/361/11, A/HK/7/87 (A/H3N2), and B/Ned/537/05 (IBV). On day 0, Madin-Darby canine kidney (MDCK) cells in 96-well plates were infected with influenza virus at a multiplicity of infection (MOI) of 0.0004 plaque forming units (PFU) per cell, and that was incubated at 35 °C for 3 days. After the third day, virus-induced CPE and compound cytotoxicity were scored by microscopy, and the data were confirmed by formazan-based MTS cell viability assay (CellTiter 96® AQueous One Solution Cell Proliferation Assay from Promega, Madison, WI, USA). […] Compound cytotoxicity was expressed as the concentration of the compound causing minimal changes in cell morphology (MCC) and 50% cytotoxic concentration (CC50) based on the MTS assay.

[1] = test system: Madin-Darby canine kidney (MDCK) cells; test: Compound cytotoxicity in MDCK cells (microscopy, MTS); details: microscopically visible alterations in cell morphology
IAV (A/H1N1) = test: CPE reduction assay, influenza A/H1N1 in MDCK cells; assay type: cell-based, influenza A virus A/H1N1 (A/Virginia/ATCC3/2009 or A/PR/8); details: Influenza A virus, H1N1, 72 h
Procedure: as §1

IBV = test: CPE reduction assay, influenza B in MDCK cells; assay type: cell-based, influenza B virus (B/Ned/537/05); details: Influenza B virus, 72 h
Procedure: as §1

in vitro = details: dog

CC(=O)N[C@H]1[C@H]([C@H](O)[C@H](O)CO)OC(C(=O)O)=C[C@@H]1N=C(N)N [Zanamivir, reference compound]
EC50 (IAV (A/H3N2); MTS cell viability assay, day 3, read-out: Antiviral EC50, IAV (A/H3N2), MTS): 1000 nM | EC50 (IAV (A/H3N2); microscopic scoring of cytopathic effect, day 3, read-out: Antiviral EC50, IAV (A/H3N2), CPE): 1600 nM | Cytotoxicity MCC (minimum cytotoxic concentration) [1]: >100 µM | EC50 (IAV (A/H1N1); MTS cell viability assay, day 3, read-out: Antiviral EC50, IAV (A/H1N1), MTS): 8.5 ± 3.4 µM | EC50 (IAV (A/H1N1); microscopic scoring of cytopathic effect, day 3, read-out: Antiviral EC50, IAV (A/H1N1), CPE): 10 ± 3 µM | EC50 (IBV; MTS cell viability assay, day 3, read-out: Antiviral EC50, IBV, MTS): 4.5 µM | EC50 (IBV; microscopic scoring of cytopathic effect, day 3, read-out: Antiviral EC50, IBV, CPE): 2.1 µM | CC50 (in vitro): > 100 µM
